In patent US11046672B2, “Indolinones compounds and their use in the treatment of fibrotic diseases” (RESPIVERT LIMITED, priority 2015, dated 2021):
“And” between values parts separate entries of the source, which are not always exact repeats. Equal entries are not always repeated. Where two headings read alike, the source gives them in different places.

How the values were obtained:
PAMPA permeability assay = type: in vitro ADME; conditions: PAMPA; for recovery at 5 hr, 10 μM: pH 7, PAMPA; for Papp at 5 h, 10 μM: pH 7, pH 7, 10 μM
MRC5 cells = experiment: Cell viability assay in MRC5 cells (MTT)
VEGFR2 = VEGFR2 (Homo sapiens (Human), UniProt P35968); experiment: VEGF165 induced phosphorylation of VEGFR2 in endothelial cells (TeloHAEC, HTRF); type: cell-based; conditions: HAEC cells; n = 1 unless otherwise indicated
PDGFRβ [1] = target: T1, PDGFRβ (Homo sapiens (Human), UniProt P09619); experiment: Duration of action (washout) against PDGF-BB induced phosphorylation of PDGFRβ in human fetal lung fibroblast cells; type: cell-based; conditions: MRC-5 cells; for Duration of action as inhibitors of PDGFRβ compared with nintedanib: wash-out
PDGFRβ [2] = target: T1, PDGFRβ; experiment: PDGF-BB induced phosphorylation of PDGFRβ in fibroblasts (MRC5 cells, HTRF); type: cell-based; conditions: MRC5 cells; n = 1 unless otherwise indicated; read-out: PDGFBB-induced PDGFRβ phosphorylation in MRC5 cells (IC50)
PDGFRβ [3] = target: T1, PDGFRβ; conditions: read-out: Ki PDGFRβ; mean, n = 2 unless otherwise indicated
[4] = Pharmacokinetic measurements in rats (intravenous and intra-tracheal dosing); type: in vivo; conditions: rat; for concentration at 0.1 h / concentration at 1.5 h / concentration at 24 h / Kp at 0.1 h / Kp at 1.5 h / MRT / clearance / Vd / half-life / Kp at 24 h: male, CD; for concentration at 0.1 h / concentration at 1.5 h / concentration at 24 h: lung, read-out: lung concentration (nM) at time (h); for Kp at 0.1 h / Kp at 1.5 h / Kp at 24 h: lung/plasma; for MRT / clearance / Vd / half-life: plasma; for clearance: i.v. dosing (i.v. dose 0.1-0.5 per compound); for Vd: read-out: Vss; for half-life: read-out: t½ (converted); for i.t. BAV (%): i.t. dosing (i.t. dose 0.1-0.5 per compound)
[5] = Pharmacokinetic measurements in mice (intravenous and intra-nasal dosing); type: in vivo; conditions: mouse; for concentration at 6 h / concentration at 0.1 h / concentration at 1.5 h / concentration at 24 h / Kp at 6 h / Kp at 0.1 h / Kp at 1.5 h: male, C57BL/6J; for concentration at 6 h / concentration at 0.1 h / concentration at 1.5 h / concentration at 24 h: lung, read-out: lung concentration (nM) at time (h); for concentration at 6 h / concentration at 0.1 h / concentration at 1.5 h / concentration at 24 h / BAV (%): mean; for Kp at 6 h / Kp at 0.1 h / Kp at 1.5 h: lung/plasma
[6] = donor and acceptor compartments
[7] = other: intra-tracheal, i.t. dosing, 0.1 h
[8] = other: intra-tracheal, i.t. dosing, 1.5 h
[9] = other: intra-tracheal, i.t. dosing, 24 h
[10] = iv, i.v. dosing, 0.1 h, read-out: lung/plasma ratio at time(h)
[11] = iv, i.v. dosing, 1.5 h, read-out: lung/plasma ratio at time(h)
[12] = other: intra-tracheal, i.t. dosing, 0.1 h, read-out: lung/plasma conc ratio at time(h)
[13] = other: intra-tracheal, i.t. dosing, 1.5 h, read-out: lung/plasma conc ratio at time(h)

T1 sequence (P09619 33-1106): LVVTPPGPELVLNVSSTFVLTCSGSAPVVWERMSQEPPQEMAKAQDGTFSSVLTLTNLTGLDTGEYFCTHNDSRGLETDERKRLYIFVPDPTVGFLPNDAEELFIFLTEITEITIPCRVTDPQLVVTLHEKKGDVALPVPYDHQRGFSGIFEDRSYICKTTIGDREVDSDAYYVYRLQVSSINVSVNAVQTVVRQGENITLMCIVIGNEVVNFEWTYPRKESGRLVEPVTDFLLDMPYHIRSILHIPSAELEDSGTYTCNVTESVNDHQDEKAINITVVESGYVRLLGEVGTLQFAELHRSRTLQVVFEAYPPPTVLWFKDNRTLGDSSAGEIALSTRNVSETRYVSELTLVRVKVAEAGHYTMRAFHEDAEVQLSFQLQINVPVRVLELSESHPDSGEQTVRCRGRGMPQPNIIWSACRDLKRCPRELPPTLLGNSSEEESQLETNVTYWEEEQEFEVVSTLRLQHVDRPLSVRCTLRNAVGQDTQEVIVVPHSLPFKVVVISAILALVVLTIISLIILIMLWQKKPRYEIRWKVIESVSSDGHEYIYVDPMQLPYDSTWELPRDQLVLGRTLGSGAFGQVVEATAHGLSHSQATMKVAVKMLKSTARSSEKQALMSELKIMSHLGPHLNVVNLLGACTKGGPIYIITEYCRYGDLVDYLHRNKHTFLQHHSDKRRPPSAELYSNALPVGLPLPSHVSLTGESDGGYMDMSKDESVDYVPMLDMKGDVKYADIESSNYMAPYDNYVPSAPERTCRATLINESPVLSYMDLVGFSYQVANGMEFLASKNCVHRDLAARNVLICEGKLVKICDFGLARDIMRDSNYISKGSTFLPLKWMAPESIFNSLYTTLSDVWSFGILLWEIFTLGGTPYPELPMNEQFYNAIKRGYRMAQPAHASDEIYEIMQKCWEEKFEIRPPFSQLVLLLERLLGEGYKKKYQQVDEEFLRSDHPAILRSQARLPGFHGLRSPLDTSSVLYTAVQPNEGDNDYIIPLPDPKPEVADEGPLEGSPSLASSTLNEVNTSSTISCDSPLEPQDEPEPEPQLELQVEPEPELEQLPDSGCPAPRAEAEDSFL
Chain of VEGFR2 (P35968 20-1356): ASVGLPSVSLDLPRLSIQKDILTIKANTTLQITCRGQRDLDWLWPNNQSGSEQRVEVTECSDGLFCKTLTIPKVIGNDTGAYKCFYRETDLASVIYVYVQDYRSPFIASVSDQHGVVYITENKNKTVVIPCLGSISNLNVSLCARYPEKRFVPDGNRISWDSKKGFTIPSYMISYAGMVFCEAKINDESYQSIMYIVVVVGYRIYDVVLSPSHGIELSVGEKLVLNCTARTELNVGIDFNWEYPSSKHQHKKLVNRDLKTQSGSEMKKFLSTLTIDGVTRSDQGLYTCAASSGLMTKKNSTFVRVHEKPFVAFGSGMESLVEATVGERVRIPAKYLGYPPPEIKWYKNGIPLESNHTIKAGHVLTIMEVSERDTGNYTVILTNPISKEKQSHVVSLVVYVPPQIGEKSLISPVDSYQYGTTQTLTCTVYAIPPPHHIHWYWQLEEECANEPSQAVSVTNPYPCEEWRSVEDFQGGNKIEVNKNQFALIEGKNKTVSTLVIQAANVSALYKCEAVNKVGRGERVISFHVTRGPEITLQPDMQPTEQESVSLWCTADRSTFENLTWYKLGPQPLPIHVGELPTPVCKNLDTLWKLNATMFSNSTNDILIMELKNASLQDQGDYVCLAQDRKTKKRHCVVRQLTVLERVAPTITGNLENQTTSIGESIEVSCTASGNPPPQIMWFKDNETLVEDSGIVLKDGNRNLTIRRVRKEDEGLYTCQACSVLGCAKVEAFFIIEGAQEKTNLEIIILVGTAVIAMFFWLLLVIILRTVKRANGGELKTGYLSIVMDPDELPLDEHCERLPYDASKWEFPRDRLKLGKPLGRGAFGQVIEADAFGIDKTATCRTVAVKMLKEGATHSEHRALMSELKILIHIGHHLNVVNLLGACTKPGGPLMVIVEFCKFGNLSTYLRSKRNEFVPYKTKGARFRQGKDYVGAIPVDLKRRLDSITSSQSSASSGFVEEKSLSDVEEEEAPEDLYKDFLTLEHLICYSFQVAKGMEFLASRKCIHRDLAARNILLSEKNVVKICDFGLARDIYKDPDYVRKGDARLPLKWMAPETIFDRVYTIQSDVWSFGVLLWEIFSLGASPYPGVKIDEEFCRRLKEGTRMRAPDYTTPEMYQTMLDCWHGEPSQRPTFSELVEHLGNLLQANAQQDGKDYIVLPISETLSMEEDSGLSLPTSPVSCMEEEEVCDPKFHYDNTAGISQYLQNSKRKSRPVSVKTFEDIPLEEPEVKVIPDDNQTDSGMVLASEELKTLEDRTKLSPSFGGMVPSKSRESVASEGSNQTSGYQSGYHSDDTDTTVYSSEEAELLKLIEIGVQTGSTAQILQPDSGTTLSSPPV

## COC(=O)c1cc2c(cc1C)/C(=C(/Nc1ccc(C(=O)NOCCCN3CCN(C)CC3)cc1)c1ccccc1)C(=O)N2 [Example 64]
PAMPA permeability assay; [6]
  recovery at 5 hr, 10 μM: 59.4%
PAMPA permeability assay
  Papp at 5 h, 10 μM: 0.0679 ×10⁻⁶ cm/s
MRC5 cells
  Cell viability at 100 nM (%): 86.5%
  Cell viability at 300 nM (%): 88.6%
  Cell viability at 1000 nM (%): 73.7%
VEGFR2
  IC50: 0.0322 µM

## COC(=O)c1ccc2c(c1)NC(=O)/C2=C(\Nc1ccc(C(=O)N(C)OC)cc1)c1ccccc1 [Example 1, (Z)-Methyl 3-(((4-(methoxy(methyl)carbamoyl)phenyl)amino)(phenyl)methylene)-2-oxoindoline-6-carboxylate]
MRC5 cells
  Cell viability at 100 nM (%): 116.6%
  Cell viability at 300 nM (%): 97 (n = 2) %
  Cell viability at 1000 nM (%): 87 (n = 2) %
VEGFR2
  IC50: 0.0322 µM

## COC(=O)c1ccc2c(c1)NC(=O)/C2=C(\Nc1ccc(C(=O)NOCCN2CCN(C)CC2)cc1)c1ccccc1 [Example 4, (Z)-Methyl 3-(((4-((2-(4-methylpiperazin-1-yl)ethoxy)carbamoyl)phenyl)amino)(phenyl)methylene)-2-oxoindoline-6-carboxylate]
PDGFRβ [1]
  Duration of action as inhibitors of PDGFRβ compared with nintedanib: longer duration of action
PAMPA permeability assay; [6]
  % Recovery: 44.9% and 75.6%
PDGFRβ [2]
  IC50: 0.0152 µM
MRC5 cells
  Cell viability at 100 nM (%): 99.2%
  Cell viability at 300 nM (%): 94.8%
  Cell viability at 1000 nM (%): 88.8%
PDGFRβ [3]
  Ki: 0.00966 µM
[4]; iv, i.v. dosing, 0.1 h
  concentration at 0.1 h: 419 nM
[4]; iv, i.v. dosing, 1.5 h
  concentration at 1.5 h: 266 nM
[4]; iv, i.v. dosing, 24 h
  concentration at 24 h: 12 nM
[4]; [7]
  concentration at 0.1 h: 5540 nM
[4]; [8]
  concentration at 1.5 h: 1540 nM
[4]; [9]
  concentration at 24 h: 218 nM
[4]; [10]
  Kp at 0.1 h: 77
[4]; [11]
  Kp at 1.5 h: 285
[4]; [12]
  Kp at 0.1 h: 279
[4]; [13]
  Kp at 1.5 h: 1320
[4]; iv, i.v. dosing
  MRT: 2.4 h
  Vd: 39 L/kg
  half-life: 2.2 h
[4]; iv
  clearance: 462 mL/min/kg
[4]; 0.1 h
  Lung conc i.t./i.v. Ratio at time (h): 13.2
[4]; 1.5 h
  Lung conc i.t./i.v. Ratio at time (h): 5.8
[4]; 24 h
  Lung conc i.t./i.v. Ratio at time (h): 18.2
[4]
  i.t. BAV (%): 67%
[4]; i.t. dosing, 0.1 h
  BAL % administered dose at time (h): 3%
[4]; i.t. dosing, 1.5 h
  BAL % administered dose at time (h): 0.3%
[4]; i.t. dosing, 24 h
  BAL % administered dose at time (h): 0.1%
[4]; i.v. dosing, 0.1 h
  BAL % administered dose at time (h): 0.01%
[4]; i.v. dosing, 1.5 h
  BAL % administered dose at time (h): BLQ
[4]; i.v. dosing, 24 h
  BAL % administered dose at time (h): BLQ
  lung/plasma ratio at time(h): BLQ

## COC(=O)c1cc2c(cc1C)/C(=C(/Nc1ccc(C(=O)NOCCN3CCN(C)CC3)cc1)c1ccccc1)C(=O)N2 [Example 6, (Z)-Methyl 5-methyl-3-(((4-((2-(4-methylpiperazin-1-yl)ethoxy)carbamoyl)phenyl)amino)(phenyl)methylene)-2-oxoindoline-6-carboxylate]
PDGFRβ [1]; after wash-out, rhuPDGF-BB, experiments in Groups 1-4
  % phos: percentage phosphorylation after wash-out relative to maximal phosphorylation (100%): 31.6%
PDGFRβ [1]
  Duration of action as inhibitors of PDGFRβ compared with nintedanib: longer duration of action
PAMPA permeability assay; [6]
  recovery at 5 hr, 10 μM: 42%
PAMPA permeability assay
  Papp at 5 h, 10 μM: 0.00649 ×10⁻⁶ cm/s
PDGFRβ [2]
  IC50: 0.00695 µM
MRC5 cells
  Cell viability at 100 nM (%): 98.1%
  Cell viability at 300 nM (%): 88.5%
  Cell viability at 1000 nM (%): 77%
[5]; iv, 0.2 mg/kg, i.v. dosing, 6 h
  concentration at 6 h: 46 nM
[5]; iv, i.v. dosing, 0.1 h
  concentration at 0.1 h: 580 nM
[5]; iv, i.v. dosing, 1.5 h
  concentration at 1.5 h: 168 nM
[5]; iv, i.v. dosing, 24 h
  concentration at 24 h: 13 nM
[5]; other: intra-nasal, i.n. dosing, 0.1 h
  concentration at 0.1 h: 1490 nM
[5]; other: intra-nasal, i.n. dosing, 1.5 h
  concentration at 1.5 h: 986 nM
[5]; other: intra-nasal, i.n. dosing, 6 h
  concentration at 6 h: 258 nM
[5]; other: intra-nasal, i.n. dosing, 24 h
  concentration at 24 h: 84 nM
[5]; iv, 0.2 mg/kg, i.v. dosing, 6 h, read-out: lung/plasma ratio at time(h)
  Kp at 6 h: 65
[5]; [10]
  Kp at 0.1 h: 11
[5]; [11]
  Kp at 1.5 h: 40
[5]; other: intra-nasal, i.n. dosing, 0.1 h, read-out: lung/plasma conc ratio at time(h)
  Kp at 0.1 h: 79
[5]; other: intra-nasal, i.n. dosing, 1.5 h, read-out: lung/plasma conc ratio at time(h)
  Kp at 1.5 h: 398
[5]; other: intra-nasal, i.n. dosing, 6 h, read-out: lung/plasma conc ratio at time(h)
  Kp at 6 h: 607
[5]; 0.1 h
  Lung conc i.n./i.v. Ratio at time (h): 2.6
[5]; 1.5 h
  Lung conc i.n./i.v. Ratio at time (h): 5.9
[5]; 6 h
  Lung conc i.n./i.v. Ratio at time (h): 5.6
[5]; 24 h
  Lung conc i.n./i.v. Ratio at time (h): 6.5
[5]; i.n. dosing (i.n. dose 1 nintedanib, 0.2 examples)
  BAV (%): ~50%
[5]; i.n. dosing, 0.1 h
  BAL % administered dose at time (h): 1%
[5]; i.n. dosing, 1.5 h
  BAL % administered dose at time (h): 0.3%
[5]; i.n. dosing, 6 h
  BAL % administered dose at time (h): 0.1%
[5]; i.n. dosing, 24 h
  BAL % administered dose at time (h): 0.04%
[5]; i.v. dosing, 0.1 h
  BAL % administered dose at time (h): 0.1%
[5]; i.v. dosing, 1.5 h
  BAL % administered dose at time (h): 0.01%
[5]; oral dosing (oral dose 60 mg/kg nintedanib, 10 mg/kg examples)
  BAV (%): <5%
PDGFRβ [3]
  Ki: 0.00831 µM
[4]; iv, i.v. dosing, 0.1 h
  concentration at 0.1 h: 2990 nM
[4]; iv, i.v. dosing, 1.5 h
  concentration at 1.5 h: 1880 nM
[4]; iv, i.v. dosing, 24 h
  concentration at 24 h: 173 nM
[4]; [7]
  concentration at 0.1 h: 30400 nM
[4]; [8]
  concentration at 1.5 h: 11900 nM
[4]; [9]
  concentration at 24 h: 4720 nM
[4]; [10]
  Kp at 0.1 h: 103
[4]; [11]
  Kp at 1.5 h: 315
[4]; iv, i.v. dosing, 24 h, read-out: lung/plasma ratio at time(h)
  Kp at 24 h: 198
[4]; [12]
  Kp at 0.1 h: 288
[4]; [13]
  Kp at 1.5 h: 2890
[4]; other: intra-tracheal, i.t. dosing, 24 h, read-out: lung/plasma conc ratio at time(h)
  Kp at 24 h: 3280
[4]; iv, i.v. dosing
  MRT: 7.9 h
  Vd: 63 L/kg
  half-life: 8.1 h
[4]; iv
  clearance: 132 mL/min/kg
[4]; 0.1 h
  Lung conc i.t./i.v. Ratio at time (h): 10.2
[4]; 1.5 h
  Lung conc i.t./i.v. Ratio at time (h): 6.3
[4]; 24 h
  Lung conc i.t./i.v. Ratio at time (h): 27.3
[4]
  i.t. BAV (%): 115%
[4]; i.t. dosing, 0.1 h
  BAL % administered dose at time (h): 6%
[4]; i.t. dosing, 1.5 h
  BAL % administered dose at time (h): 3%
[4]; i.t. dosing, 24 h
  BAL % administered dose at time (h): 0.1%
[4]; i.v. dosing, 0.1 h
  BAL % administered dose at time (h): 0.06%
[4]; i.v. dosing, 1.5 h
  BAL % administered dose at time (h): 0.03%
[4]; i.v. dosing, 24 h
  BAL % administered dose at time (h): BQL
[4]; oral dose 3 mg/kg
  Oral BAV (%): <1%
